The target of experiment [1] is T1, Beta-adrenergic receptor kinase 1 (Homo sapiens, UniProt P25098).
T1 sequence (P25098 whole entry): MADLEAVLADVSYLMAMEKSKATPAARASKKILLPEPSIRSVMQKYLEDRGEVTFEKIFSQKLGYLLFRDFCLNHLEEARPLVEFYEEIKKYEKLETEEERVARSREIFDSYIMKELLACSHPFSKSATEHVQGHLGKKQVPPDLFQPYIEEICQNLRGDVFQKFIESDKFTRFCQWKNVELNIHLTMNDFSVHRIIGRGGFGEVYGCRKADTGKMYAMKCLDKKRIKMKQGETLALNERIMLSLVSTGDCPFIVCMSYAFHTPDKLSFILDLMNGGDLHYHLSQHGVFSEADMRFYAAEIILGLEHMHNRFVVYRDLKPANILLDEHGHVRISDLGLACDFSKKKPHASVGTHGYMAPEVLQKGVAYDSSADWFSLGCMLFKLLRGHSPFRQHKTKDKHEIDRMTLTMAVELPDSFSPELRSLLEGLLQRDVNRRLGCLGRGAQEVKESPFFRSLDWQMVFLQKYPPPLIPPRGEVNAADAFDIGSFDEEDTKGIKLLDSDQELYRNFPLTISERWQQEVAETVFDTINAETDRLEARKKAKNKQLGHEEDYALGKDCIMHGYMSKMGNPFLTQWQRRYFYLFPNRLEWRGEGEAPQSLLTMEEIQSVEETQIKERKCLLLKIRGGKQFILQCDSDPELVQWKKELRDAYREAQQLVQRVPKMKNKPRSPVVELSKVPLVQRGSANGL

The target in experiment [2] is Ribosomal protein S6 kinase alpha-1 (Homo sapiens, UniProt Q15418).
Sequence of Ribosomal protein S6 kinase alpha-1 (Q15418 whole entry): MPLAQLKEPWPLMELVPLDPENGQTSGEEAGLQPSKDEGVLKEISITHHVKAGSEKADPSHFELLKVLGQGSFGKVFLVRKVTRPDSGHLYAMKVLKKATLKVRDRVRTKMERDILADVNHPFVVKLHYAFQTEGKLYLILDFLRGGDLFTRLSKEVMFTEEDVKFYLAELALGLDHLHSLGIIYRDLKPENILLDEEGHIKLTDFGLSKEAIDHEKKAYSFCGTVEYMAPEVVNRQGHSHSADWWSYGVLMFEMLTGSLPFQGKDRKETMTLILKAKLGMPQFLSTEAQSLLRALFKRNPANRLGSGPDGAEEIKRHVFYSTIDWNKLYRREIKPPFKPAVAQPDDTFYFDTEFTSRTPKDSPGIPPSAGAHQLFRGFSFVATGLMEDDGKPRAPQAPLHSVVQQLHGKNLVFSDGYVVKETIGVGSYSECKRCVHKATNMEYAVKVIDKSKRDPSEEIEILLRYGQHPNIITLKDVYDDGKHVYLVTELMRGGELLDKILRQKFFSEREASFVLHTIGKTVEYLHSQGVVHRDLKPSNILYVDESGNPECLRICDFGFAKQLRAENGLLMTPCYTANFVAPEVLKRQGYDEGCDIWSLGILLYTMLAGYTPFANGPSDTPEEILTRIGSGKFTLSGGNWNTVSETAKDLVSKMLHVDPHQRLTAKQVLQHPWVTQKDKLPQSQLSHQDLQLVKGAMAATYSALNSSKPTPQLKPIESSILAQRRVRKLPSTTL
Experiment [3] has as its target MAP/microtubule affinity-regulating kinase 3 (Homo sapiens, UniProt P27448).
In the next experiment the target is T2, Heme oxygenase 2 (Homo sapiens, UniProt P30519).
T2 sequence (P30519 whole entry): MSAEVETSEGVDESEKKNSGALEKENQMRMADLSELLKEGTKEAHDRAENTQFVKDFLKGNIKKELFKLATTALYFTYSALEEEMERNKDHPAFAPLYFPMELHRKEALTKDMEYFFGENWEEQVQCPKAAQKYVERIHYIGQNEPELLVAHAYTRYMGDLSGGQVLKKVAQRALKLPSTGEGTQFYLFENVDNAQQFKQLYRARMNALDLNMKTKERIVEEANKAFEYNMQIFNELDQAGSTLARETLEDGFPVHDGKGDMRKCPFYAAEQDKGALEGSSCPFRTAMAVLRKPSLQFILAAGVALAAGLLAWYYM

For experiment [4], the target named is T3, Serine/threonine-protein kinase D3 (Homo sapiens, UniProt O94806).
T3 sequence (O94806 whole entry): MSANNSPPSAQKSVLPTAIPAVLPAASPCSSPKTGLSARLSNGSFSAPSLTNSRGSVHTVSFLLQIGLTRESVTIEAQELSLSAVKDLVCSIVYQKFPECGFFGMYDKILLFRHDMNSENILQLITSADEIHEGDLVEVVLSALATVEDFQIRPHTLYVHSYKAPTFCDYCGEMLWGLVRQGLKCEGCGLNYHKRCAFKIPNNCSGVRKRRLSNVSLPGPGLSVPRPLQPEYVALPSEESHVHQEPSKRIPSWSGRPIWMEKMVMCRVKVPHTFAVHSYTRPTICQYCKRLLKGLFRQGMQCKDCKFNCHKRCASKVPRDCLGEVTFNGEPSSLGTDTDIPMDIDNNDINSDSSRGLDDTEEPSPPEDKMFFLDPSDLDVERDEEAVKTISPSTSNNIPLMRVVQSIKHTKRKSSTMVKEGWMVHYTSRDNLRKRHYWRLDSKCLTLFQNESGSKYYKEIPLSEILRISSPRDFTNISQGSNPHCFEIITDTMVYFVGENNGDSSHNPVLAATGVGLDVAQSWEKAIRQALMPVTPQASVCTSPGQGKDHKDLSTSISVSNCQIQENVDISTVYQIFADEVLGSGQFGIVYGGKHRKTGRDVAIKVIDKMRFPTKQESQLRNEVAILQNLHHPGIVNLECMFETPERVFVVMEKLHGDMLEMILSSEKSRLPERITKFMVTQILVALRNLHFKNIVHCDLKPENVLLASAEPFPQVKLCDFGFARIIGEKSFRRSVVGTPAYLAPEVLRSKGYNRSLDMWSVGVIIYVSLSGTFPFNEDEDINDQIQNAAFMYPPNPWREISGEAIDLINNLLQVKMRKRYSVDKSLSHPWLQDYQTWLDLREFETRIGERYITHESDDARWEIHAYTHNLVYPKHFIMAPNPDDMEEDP

Experiment [5] addresses Protein kinase C theta type (Homo sapiens, UniProt Q04759).
For experiment [6], the target named is T4, Phosphatidylinositol 5-phosphate 4-kinase type-2 alpha (Homo sapiens, UniProt P48426).
T4 sequence (P48426 whole entry): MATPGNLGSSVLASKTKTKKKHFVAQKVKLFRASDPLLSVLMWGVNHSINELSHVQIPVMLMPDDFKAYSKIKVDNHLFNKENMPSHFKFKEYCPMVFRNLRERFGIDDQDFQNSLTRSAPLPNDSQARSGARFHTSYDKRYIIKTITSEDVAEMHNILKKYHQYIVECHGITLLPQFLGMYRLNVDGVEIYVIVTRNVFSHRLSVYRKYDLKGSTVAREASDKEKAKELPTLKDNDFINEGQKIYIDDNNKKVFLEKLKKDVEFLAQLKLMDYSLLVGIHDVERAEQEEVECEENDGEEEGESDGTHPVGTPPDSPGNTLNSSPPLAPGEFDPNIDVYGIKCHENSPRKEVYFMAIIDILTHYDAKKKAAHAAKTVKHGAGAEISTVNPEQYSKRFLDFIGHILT

Experiment [7] addresses Tyrosine-protein kinase ABL1 (Homo sapiens, UniProt P00519).
For experiment [8], the target named is Serine/threonine-protein kinase MRCK gamma (Homo sapiens, UniProt Q6DT37).
Sequence of Serine/threonine-protein kinase MRCK gamma (Q6DT37 whole entry): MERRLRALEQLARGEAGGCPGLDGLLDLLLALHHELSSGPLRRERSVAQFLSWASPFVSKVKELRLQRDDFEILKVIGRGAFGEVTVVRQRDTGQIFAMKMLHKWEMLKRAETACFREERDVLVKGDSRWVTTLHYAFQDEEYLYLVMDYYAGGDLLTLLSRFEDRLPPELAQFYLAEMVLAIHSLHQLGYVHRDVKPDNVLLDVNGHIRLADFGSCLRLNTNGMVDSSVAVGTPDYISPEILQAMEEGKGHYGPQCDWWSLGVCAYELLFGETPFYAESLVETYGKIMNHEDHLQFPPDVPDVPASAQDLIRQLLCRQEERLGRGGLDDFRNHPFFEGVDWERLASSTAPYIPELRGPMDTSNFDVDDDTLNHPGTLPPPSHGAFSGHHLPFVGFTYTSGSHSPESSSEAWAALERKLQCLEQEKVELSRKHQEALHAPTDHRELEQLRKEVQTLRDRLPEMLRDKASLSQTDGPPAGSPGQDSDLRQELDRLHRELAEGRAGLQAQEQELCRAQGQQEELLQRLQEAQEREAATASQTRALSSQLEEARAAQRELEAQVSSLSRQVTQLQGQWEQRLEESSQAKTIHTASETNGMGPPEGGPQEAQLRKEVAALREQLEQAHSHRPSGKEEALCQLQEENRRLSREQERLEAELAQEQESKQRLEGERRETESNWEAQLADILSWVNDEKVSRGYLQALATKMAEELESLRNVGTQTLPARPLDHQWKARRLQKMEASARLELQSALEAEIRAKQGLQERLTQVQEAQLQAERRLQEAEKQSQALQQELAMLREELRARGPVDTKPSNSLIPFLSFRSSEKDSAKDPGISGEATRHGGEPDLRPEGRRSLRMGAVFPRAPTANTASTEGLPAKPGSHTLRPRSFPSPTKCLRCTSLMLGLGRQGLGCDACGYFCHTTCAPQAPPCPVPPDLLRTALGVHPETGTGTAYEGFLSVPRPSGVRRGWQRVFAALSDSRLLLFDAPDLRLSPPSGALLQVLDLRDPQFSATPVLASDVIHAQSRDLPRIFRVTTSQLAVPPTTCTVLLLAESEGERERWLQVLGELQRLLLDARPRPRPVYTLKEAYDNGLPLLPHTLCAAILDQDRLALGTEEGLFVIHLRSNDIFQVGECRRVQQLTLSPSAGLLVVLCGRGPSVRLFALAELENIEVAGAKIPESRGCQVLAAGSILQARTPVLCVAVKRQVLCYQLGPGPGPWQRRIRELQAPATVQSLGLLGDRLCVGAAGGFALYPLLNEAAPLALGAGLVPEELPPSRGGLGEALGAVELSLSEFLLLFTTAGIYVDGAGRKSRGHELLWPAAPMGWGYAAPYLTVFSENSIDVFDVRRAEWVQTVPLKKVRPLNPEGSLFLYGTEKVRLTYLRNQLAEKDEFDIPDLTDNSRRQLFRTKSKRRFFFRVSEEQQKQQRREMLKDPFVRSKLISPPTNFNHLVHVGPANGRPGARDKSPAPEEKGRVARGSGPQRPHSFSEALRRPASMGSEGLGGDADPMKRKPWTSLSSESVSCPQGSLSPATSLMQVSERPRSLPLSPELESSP

SMILES strings stand for the structures. Calls of active or inactive are those of the source.

The term Kd denotes the concentration at which binding is half-saturated.
Also: in the data inactive means no Kd found up to 30 µM.

Sequence of Protein kinase C theta type (Q04759 whole entry): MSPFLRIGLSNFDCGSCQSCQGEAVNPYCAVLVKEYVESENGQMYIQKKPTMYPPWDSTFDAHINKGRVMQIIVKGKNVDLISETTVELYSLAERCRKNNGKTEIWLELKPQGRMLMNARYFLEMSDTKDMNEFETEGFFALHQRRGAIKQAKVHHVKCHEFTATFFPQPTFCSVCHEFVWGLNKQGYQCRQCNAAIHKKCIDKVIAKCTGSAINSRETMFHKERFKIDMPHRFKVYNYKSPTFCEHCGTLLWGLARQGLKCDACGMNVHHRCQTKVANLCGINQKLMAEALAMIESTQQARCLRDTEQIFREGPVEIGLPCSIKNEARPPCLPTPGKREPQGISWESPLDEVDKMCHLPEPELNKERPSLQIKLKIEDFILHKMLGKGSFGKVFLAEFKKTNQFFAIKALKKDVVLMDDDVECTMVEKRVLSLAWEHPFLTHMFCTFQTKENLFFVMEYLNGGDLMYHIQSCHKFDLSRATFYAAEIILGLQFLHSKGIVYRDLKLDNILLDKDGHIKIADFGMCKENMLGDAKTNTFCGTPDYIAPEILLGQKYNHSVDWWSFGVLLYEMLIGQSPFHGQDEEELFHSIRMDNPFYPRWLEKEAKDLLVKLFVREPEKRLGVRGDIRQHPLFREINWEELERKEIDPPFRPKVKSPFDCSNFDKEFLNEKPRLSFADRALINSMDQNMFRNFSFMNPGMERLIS
Sequence of Tyrosine-protein kinase ABL1 (P00519 whole entry): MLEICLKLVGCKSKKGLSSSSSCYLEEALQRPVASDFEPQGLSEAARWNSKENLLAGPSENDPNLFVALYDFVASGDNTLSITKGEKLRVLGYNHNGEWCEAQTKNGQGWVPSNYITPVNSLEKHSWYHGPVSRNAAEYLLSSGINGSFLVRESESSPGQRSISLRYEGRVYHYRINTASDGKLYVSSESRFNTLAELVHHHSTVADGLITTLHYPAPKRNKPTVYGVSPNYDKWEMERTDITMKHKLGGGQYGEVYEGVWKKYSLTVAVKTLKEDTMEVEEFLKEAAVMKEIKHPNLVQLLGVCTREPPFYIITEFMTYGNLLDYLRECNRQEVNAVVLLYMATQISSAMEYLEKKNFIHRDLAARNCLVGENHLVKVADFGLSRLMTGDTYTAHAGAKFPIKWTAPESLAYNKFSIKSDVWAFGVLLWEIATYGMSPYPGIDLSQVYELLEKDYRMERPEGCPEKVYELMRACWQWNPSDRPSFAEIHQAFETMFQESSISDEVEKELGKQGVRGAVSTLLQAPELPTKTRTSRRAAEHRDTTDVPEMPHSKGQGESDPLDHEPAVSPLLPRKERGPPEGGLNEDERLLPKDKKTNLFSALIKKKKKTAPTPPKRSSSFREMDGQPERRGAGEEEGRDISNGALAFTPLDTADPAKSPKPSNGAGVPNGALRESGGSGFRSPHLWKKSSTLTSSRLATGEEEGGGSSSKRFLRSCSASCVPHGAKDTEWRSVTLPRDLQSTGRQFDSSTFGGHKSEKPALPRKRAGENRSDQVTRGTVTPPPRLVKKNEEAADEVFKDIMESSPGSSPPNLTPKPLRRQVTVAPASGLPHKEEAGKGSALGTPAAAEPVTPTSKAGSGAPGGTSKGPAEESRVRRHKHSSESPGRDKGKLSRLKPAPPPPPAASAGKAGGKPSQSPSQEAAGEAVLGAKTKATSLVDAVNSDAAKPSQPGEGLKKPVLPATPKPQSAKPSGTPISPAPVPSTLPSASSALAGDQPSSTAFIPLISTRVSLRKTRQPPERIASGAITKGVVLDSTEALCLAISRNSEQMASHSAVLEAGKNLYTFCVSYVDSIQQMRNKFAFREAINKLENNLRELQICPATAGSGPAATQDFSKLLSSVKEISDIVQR
Sequence of MAP/microtubule affinity-regulating kinase 3 (P27448 whole entry): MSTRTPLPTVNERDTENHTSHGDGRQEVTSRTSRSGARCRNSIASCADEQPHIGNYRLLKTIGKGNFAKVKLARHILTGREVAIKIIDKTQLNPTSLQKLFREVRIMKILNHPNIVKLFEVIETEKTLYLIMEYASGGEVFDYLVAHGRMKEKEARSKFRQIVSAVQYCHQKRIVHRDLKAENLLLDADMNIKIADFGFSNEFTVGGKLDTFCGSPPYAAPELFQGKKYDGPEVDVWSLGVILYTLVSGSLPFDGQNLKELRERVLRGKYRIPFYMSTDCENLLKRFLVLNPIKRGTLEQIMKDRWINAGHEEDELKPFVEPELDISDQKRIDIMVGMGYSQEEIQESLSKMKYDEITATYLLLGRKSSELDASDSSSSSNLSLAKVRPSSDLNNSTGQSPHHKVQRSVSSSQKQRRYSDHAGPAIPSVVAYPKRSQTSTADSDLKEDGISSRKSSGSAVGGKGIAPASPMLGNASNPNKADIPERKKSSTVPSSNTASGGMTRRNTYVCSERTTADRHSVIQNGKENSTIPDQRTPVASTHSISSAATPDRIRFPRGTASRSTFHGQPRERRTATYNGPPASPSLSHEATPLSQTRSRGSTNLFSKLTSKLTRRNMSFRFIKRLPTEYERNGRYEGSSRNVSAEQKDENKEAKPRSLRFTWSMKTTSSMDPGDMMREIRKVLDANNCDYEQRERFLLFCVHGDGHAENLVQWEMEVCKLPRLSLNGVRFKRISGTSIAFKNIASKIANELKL

`C=CC(=O)N1CCC[C@H](n2c(=O)n(-c3ccc(Oc4ccccc4)cc3)c3c(N)ncnc32)C1`: the Kd (in [1]; in [2]; in [3]; at Heme oxygenase 2; in [4]; in [5]) was > 30 µM (inactive) throughout. Further, the Kd in experiment [6], in experiment [7] and in experiment [8] was > 30 µM (inactive) each time.
On to `Cc1csc(-c2nnc(Nc3ccc(Oc4ncccc4-c4ccnc(N)n4)cc3)c3ccccc23)c1` [AMG-900], for which the Kd is > 30 µM (inactive) in experiment [1]; > 30 µM (inactive) in [2]; > 30 µM (inactive) in [3]; > 30 µM (inactive) at Heme oxygenase 2; 1.91 µM (active) in experiment [4]; > 30 µM (inactive) in [5]. For the same compound, the Kd in experiment [6] is > 30 µM (inactive); in experiment [7], 1.9 µM (active); in experiment [8], > 30 µM (inactive).
Consider `COc1cc([C@@H]2c3cc4c(cc3[C@H](O)[C@H]3COC(=O)[C@@H]23)OCO4)cc(OC)c1OC` [AXL-1717], for which the Kd (in [1]; in experiment [2]; in experiment [3]; on Heme oxygenase 2; in experiment [4]; in experiment [5]) was > 30 µM (inactive) each time. Moreover, the Kd in experiment [6], in [7] and in experiment [8] was > 30 µM (inactive) throughout.
Turning to `Cc1cc(C(=O)NOCCO)c(Nc2ccc(I)cc2F)n(C)c1=O` [AZD-8330], the Kd (in experiment [1]; in experiment [2]; in experiment [3]; at Heme oxygenase 2; in experiment [4]; in experiment [5]) was > 30 µM (inactive) throughout. In addition, the Kd in experiment [6], in [7] and in experiment [8] was > 30 µM (inactive) each time.
Regarding `COc1cc2ncnc(Oc3cccc(NC(=O)Nc4cc(C(C)(C)C(F)(F)F)on4)c3)c2cc1OC` [CEP-32496], the Kd (in experiment [1]; in experiment [2]; in experiment [3]; on Heme oxygenase 2; in experiment [4]; in [5]) was > 30 µM (inactive) in each case. Moreover, the Kd in experiment [6] is > 30 µM (inactive); in experiment [7] it was 0.05 µM (active); in experiment [8] it was > 30 µM (inactive).
With `Cc1nc2cc(-n3ncc(C(=O)c4cc5ccccc5[nH]4)c3N)ccc2[nH]1` [FGFR INHIBITOR DEBIO 1347], the Kd in experiment [1], in experiment [2], in experiment [3], in [4], in [5] and in experiment [7] was > 30 µM (inactive) in each case. For the same compound, the Kd in experiment [8] is > 30 µM (inactive).
With `NC1(c2ccc(-c3nc4ccn5c(=O)[nH]nc5c4cc3-c3ccccc3)cc2)CCC1` [MK-2206], the Kd in experiment [1], in experiment [2], in experiment [3], in [4], in experiment [5] and in experiment [6] was > 30 µM (inactive) in each case. Further, the Kd in [7] and in experiment [8] was > 30 µM (inactive) each time.
For the compound `CN(C[C@@H]1COCCO1)S(=O)(=O)Nc1ccc2ccc3ncc(-c4cnn(C)c4)cc3c(=O)c2c1` [MK-2461], the Kd (in experiment [1]; in experiment [2]; in [3]; at Heme oxygenase 2; in experiment [4]; in [5]) was > 30 µM (inactive) in each case. Besides, the Kd in [6], in experiment [7] and in experiment [8] was > 30 µM (inactive) throughout.
Take `CCCCCCCCCCCCCCCCCCOP(=O)([O-])OC1CC[N+](C)(C)CC1` [PERIFOSINE]: the Kd (in experiment [1]; in experiment [2]; in [3]; at Heme oxygenase 2; in [4]; in [5]) was > 30 µM (inactive) each time. Further, the Kd in experiment [7] was > 30 µM (inactive).
Regarding `CO[C@H]1C[C@@H]2CC[C@@H](C)[C@@](O)(O2)C(=O)C(=O)N2CCCC[C@H]2C(=O)O[C@H]([C@H](C)C[C@@H]2CC[C@@H](OP(C)(C)=O)[C@H](OC)C2)CC(=O)[C@H](C)/C=C(\C)[C@@H](O)[C@@H](OC)C(=O)[C@H](C)C[C@H](C)/C=C/C=C/C=C/1C` [RIDAFOROLIMUS], the Kd (in experiment [1]; in [2]; in experiment [3]; at Heme oxygenase 2; in experiment [4]; in experiment [5]) was > 30 µM (inactive) throughout. In addition, the Kd in experiment [6], in experiment [7] and in [8] was > 30 µM (inactive) in each case.
For `Cn1cc(-c2cnn3c(N)c(Br)c([C@@H]4CCCNC4)nc23)cn1` [SCH-900776], the Kd in experiment [1] is > 30 µM (inactive); in [2], > 30 µM (inactive); in [3], 1.93 µM (active); at Heme oxygenase 2 it was > 30 µM (inactive); in experiment [4] it was > 30 µM (inactive); in experiment [5], > 30 µM (inactive). For the same compound, the Kd in experiment [6], in experiment [7] and in experiment [8] was > 30 µM (inactive) in each case.
Turning to `O=C1NC(=O)[C@@H](c2cn3c4c(cccc24)CCC3)[C@@H]1c1c[nH]c2ccccc12` [TIVANTINIB], the Kd was > 30 µM (inactive) in [1]; > 30 µM (inactive) in experiment [2]; > 30 µM (inactive) in [3]; 0.119 µM at Heme oxygenase 2; > 30 µM (inactive) in experiment [4]; > 30 µM (inactive) in [5]. The Kd in experiment [7] and in experiment [8] was > 30 µM (inactive) throughout.

Source of the values: ChEMBL document CHEMBL3991601, “The target landscape of clinical kinase drugs” (Science, 2017).
